The experiment deals with Histone-lysine N-methyltransferase ASH1L (Homo sapiens, UniProt Q9NR48). Briefly: Inhibition of MOCR-fused ASH1L SET-BAH ( 2069 to 2833 amino acids) (unknown origin) expressed as in Escherichia coli BL21 (DE3) T1R cells using SAM and chicken mono/dinucleosomes incubated for 1 hr by scintillation counting assay.

Structures are written as SMILES.

Drawing on ChEMBL document CHEMBL4482324, “Ash1l inhibitors and methods of treatment therewith” (2017), this text covers IC50 for 33 compounds.

Regarding `NC(=S)c1cccc(-c2cn(CC(CF)CF)c3cc(NC(=O)c4ncc[nH]4)ccc23)c1`, the IC50 is < 20 µM. For `NC(=S)c1cccc(-c2cn(C3CCCCC3)c3cc(CO)ccc23)c1`, the IC50 was < 20 µM.

On to `NC(=S)c1cccc(-c2cn(C3CCN(S(=O)(=O)CCCNC(=O)c4ccc5c(c4)C(=O)OC54c5ccc(O)cc5Oc5cc(O)ccc54)CC3)c3cc(CNC(=O)Cc4c[nH]cn4)ccc23)c1`, for which the IC50 was < 20 µM.

In turn, `NC(=S)c1cccc(-c2cn(CCC(O)C(F)(F)F)c3cc(N)ccc23)c1` (stereo not drawn) showed an IC50 of 20 to 100 µM. Under `NC(=S)c1cccc(-c2cn(CCC(F)F)c3cc(C(F)F)ccc23)c1` stands < 20 µM.

`NC(=S)c1cccc(-c2cn(C3CCN(C(=O)CCCCc4cccc5c4C(=O)N(C4CCC(=O)NC4=O)C5=O)CC3)c3cc(CNc4nnc(N)s4)ccc23)c1` (stereo not drawn): the IC50 is < 20 µM.

For the compound `NC(=S)c1cccc(-c2cccc3nc(N)sc23)c1`, the half-maximal inhibitory concentration (IC50) lay in the range of 20 to 100 µM.

For `NC(=S)c1cccc(-c2cn(CCC(F)F)c3cc(CO)ccc23)c1`, the IC50 was < 20 µM. For the compound `NC(=S)c1ccc(-c2cn(CCC(F)F)c3cc(CO)ccc23)[nH]1`, the IC50 is < 20 µM. With `CCC(O)c1ccc2c(-c3cccc(C(N)=S)c3)cn(CCC(F)F)c2c1` (stereo not drawn), the IC50 was < 20 µM. In the case of `NC(=S)c1cccc(-c2cn(CC(CF)CF)c3cc(NC(=O)c4cnc[nH]4)ccc23)c1`, the IC50 is < 20 µM.

Take `NC(=S)c1cccc(-c2cn(CCCC(F)(F)F)c3cc(CNS(=O)(=O)c4c[nH]cn4)ccc23)c1`: the IC50 is < 20 µM. To `NC(=S)c1cccc(-c2cn(CC3(F)CCC3)c3cc(CO)ccc23)c1` belongs < 20 µM; to `CNCc1ccc2c(-c3cccc(C(N)=S)c3)c[nH]c2c1`, 20 to 100 µM; to `NC(=S)c1cccc(-c2cn(CCC(F)F)c3cc(CNCCOCCOCCOCCNc4cccc5c4C(=O)N(C4CCC(=O)NC4=O)C5=O)ccc23)c1` (stereo not drawn), < 20 µM. `NC(=S)c1cccc(-c2cn(CO)c3ccccc23)c1` yielded an IC50 of 20 to 100 µM.

On to `NC(=S)c1cc(-c2cn(CCC(F)F)c3cc(CO)ccc23)c2[nH]ccc2c1`, for which the IC50 is < 20 µM. To `Cc1c[nH]c2cccc(-c3cccc(C(N)=S)c3)c12` belongs > 100 µM; to `NC(=S)c1cccc(-c2cccc3[nH]ccc23)c1O`, > 100 µM. Under `CS(=O)(=O)N1CCC(n2cc(-c3cccc(C(N)=S)c3)c3ccc(CNC(=O)Cc4cc5ccccc5[nH]4)cc32)CC1` stands < 20 µM; under `NC(=S)c1cccc(-c2ccc(CCC(F)F)c3[nH]c(CO)cc23)c1`, < 20 µM.

With `NC(=S)c1ccc(-c2ccccc2)s1`, the half-maximal inhibitory concentration (IC50) is > 100 µM. Turning to `NC(=S)c1cccc(-c2cn(C3CCC3)c3cc(CO)ccc23)c1`, the IC50 is < 20 µM. For `NC(=S)c1cccc(-c2cn(CC(CF)CF)c3cc(CNCCOCCOCCOCCNc4cccc5c4C(=O)N(C4CCC(=O)NC4=O)C5=O)ccc23)c1` (stereo not drawn), the IC50 is < 20 µM.

Take `NC(=S)c1cc(-c2cccc3[nH]ccc23)ccc1N`: the IC50 is > 100 µM.

As to `NC(=S)c1ccc(-c2ccc(O)cc2)s1`, the IC50 is > 100 µM. Turning to `NC(=S)c1cccc(-n2cc(CCC(F)F)c3cc(CO)ccc32)c1`, the IC50 is < 20 µM.

`NC(=S)c1cc(-c2cn(CCC(F)F)c3cc(CO)ccc23)c2cc[nH]c2c1`: the IC50 is < 20 µM. `CC(O)COC(C)Cn1cc(-c2cccc(C(N)=S)c2)c2ccccc21` (stereo not drawn) showed an IC50 of 20 to 100 µM. Consider `NC(=S)c1cccc(-c2ccc(OCCOCCNC(=O)CCCCCNC(=O)c3ccc4c(c3)C(=O)OC43c4ccc(O)cc4Oc4cc(O)ccc43)c3[nH]ccc23)c1`, for which the IC50 was > 100 µM.

As to `NC(=S)c1cccc(-c2cn(CC(CF)CF)c3cc(CO)ccc23)n1`, the IC50 was < 20 µM.

Take `CS(=O)(=O)N1CCC(n2cc(-c3cccc(C(N)=S)c3)c3ccc(CNC(=O)Cc4cc(NCC5CCCCC5)c[nH]4)cc32)CC1`: the IC50 is < 20 µM. On to `NC(=S)c1cccc(-c2c[nH]c3cc(N)ccc23)c1`, for which the IC50 fell in the range of 20 to 100 µM.
